Results from patent US12492210B2, “Tricyclic compounds and their use” (HUTCHISON MEDIPHARMA LIMITED, priority 2019, dated 2025).

Assays:
[1] = target: T1, MAPK1(ERK2) enzyme (Homo sapiens, UniProt P28482); assay: Z-Lyte Kinase Assay of ERK2; assay type: biochemical; settings: read-out: Example 18 IC50
T1 construct: purchased Invitrogen PV3313
Outline: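 FRET-based Z-LYTE assay using ERK2 kinase with Ser/Thr3 peptide; compound tested at 0.00046–1 μM final in 2% DMSO. Kinase reaction ran 1 h at 25-30° C, followed by 1 h development. The coumarin/fluorescein emission ratio (445/520 nm) gave % phosphorylation, and IC50 was fitted from inhibition relative to uninhibited control.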

[2] = tested on: p-RSK (Thr359) in colo205 cells; assay: p-RSK (Thr359) Acumen Assay in Colo205; assay type: cell-based; settings: Homo sapiens, COLO 205, 1 hour compound incubation, read-out: Example 19 IC50
Outline: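 Colo205 cells (4000/well, seeded overnight in 10% FBS) were exposed 1 hour at 37° C to compound added from a 3–0.001 μM dilution series in 5% DMSO. Cells were then fixed, permeabilised and immunostained for p-RSK Thr359, with PI counterstain. Acumen cytometry gave the percentage of positive cells, normalised to untreated wells and 3 uM GDC0994 wells, for the IC50 fit.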

T1 sequence (P28482 whole entry): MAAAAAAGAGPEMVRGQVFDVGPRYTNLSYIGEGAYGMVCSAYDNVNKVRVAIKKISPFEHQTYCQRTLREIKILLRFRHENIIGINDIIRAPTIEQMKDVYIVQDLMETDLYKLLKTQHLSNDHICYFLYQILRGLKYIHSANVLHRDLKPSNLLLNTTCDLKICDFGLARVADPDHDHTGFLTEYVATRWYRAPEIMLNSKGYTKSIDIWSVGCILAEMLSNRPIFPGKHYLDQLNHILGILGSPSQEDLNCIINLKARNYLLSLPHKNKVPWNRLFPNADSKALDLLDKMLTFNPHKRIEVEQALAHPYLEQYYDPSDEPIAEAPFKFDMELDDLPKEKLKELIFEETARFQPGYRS

Row | Compound | IC50 [1] [µM] | IC50 [2] [µM]
1 | CC1CCn2c(nnc2C2(C(F)(F)F)CCC2)-c2cc(-c3cc(Nc4ccnn4C)ncc3Cl)cn21 (stereo not shown) [Compound 52] | ≤ 0.005 | ≤ 0.1
2 | Cn1nccc1Nc1cc(-c2cc3n(c2)CCCn2c(COC(F)(F)F)nnc2-3)c(Cl)cn1 [Compound 11] | ≤ 0.005 | ≤ 0.1
3 | Cn1nccc1Nc1cc(-c2cc3n(c2)CC(F)(F)Cn2c-3nnc2C(F)(F)C(F)F)c(Cl)cn1 [Compound 113] | 0.005 to 0.01 | > 0.1
4 | Cn1nccc1Nc1cc(-c2cc3n(c2)CC(CO)Cn2c-3nnc2C2(C(F)(F)F)CCC2)c(Cl)cn1 (stereo not shown) [Compound 299, (10-(5-chloro-2-((1-methyl-1H-pyrazol-5-yl)amino)pyridin-4-yl)-3-(1-(trifluoromethyl)cyclobutyl)-6,7-dihydro-5H-pyrrolo[1,2-a][1,2,4]triazolo[3,4-c][1,4]diazepin-6-yl)methanol] | ≤ 0.005 | ≤ 0.1
5 | Cn1nccc1Nc1cc(-c2cc3n(c2)CCCn2c(Nc4ccccc4F)nnc2-3)c(Cl)cn1 [Compound 43] | 0.005 to 0.01 | ≤ 0.1
6 | Cn1nccc1Nc1cc(-c2cc3n(c2)C[C@H](F)Cn2c-3nnc2C(F)(F)n2cc(F)cn2)c(Cl)cn1 [Compound 162] | 0.005 to 0.01 | ≤ 0.1
7 | Cc1cnc(Nc2ccnn2C)cc1-c1cc2n(c1)CC(F)(F)Cn1c-2nnc1C(F)(F)C(F)F [Compound 78] | ≤ 0.005 | ≤ 0.1
8 | Cn1nccc1Nc1cc(-c2cc3n(c2)CCCn2c(COC4(C(F)(F)F)CCC4)nnc2-3)c(Cl)cn1 [Compound 34] | > 0.01 | > 0.1
9 | Cc1cnc(Nc2ccnn2C)cc1-c1cc2n(c1)C(C)CCn1c-2nnc1C1(C(F)(F)F)CCC1 (stereo not shown) [Compound 77] | ≤ 0.005 | ≤ 0.1
10 | Cn1nccc1Nc1nccc(-c2cc3c4nnc(Cc5cccc(F)c5)n4ccn3c2)n1 [Compound 282] | ≤ 0.005 | > 0.1
11 | Cn1nccc1Nc1cc(-c2cc3n(c2)CC(F)(F)Cn2c(Cn4cc(F)cc4C#N)nnc2-3)c(Cl)cn1 [Compound 219] | ≤ 0.005 | > 0.1
12 | Cn1nccc1Nc1cc(-c2cc3n(c2)CC(F)(F)Cn2c-3nnc2C2(C(F)(F)F)CCC2)c(Cl)cn1 [Compound 171] | > 0.01 | ≤ 0.1
13 | Cn1nccc1Nc1cc(-c2cc3n(c2)CCCn2c-3nnc2C2(C(F)(F)F)CCCC2)c(Cl)cn1 [Compound 31] | 0.005 to 0.01 | ≤ 0.1
14 | Cn1nccc1Nc1cc(-c2cc3n(c2)CCCn2c-3nnc2[C@H](O)C2CCCCC2)c(Cl)cn1 [Compound 24] | 0.005 to 0.01 | > 0.1
15 | Cn1nccc1Nc1cc(-c2cc3n(c2)CC2(CCC2)Cn2c-3nnc2C2(C(F)(F)F)CCC2)c(Cl)cn1 [Compound 55, 5-chloro-N-(1-methyl-1H-pyrazol-5-yl)-4-(3′-(1-(trifluoromethyl)cyclobutyl)-5′H,7′H-spiro[cyclobutane-1,6′-pyrrolo[1,2-a][1,2,4]triazolo[3,4-c][1,4]diazepin]-10′-yl)pyridin-2-amine] | 0.005 to 0.01 | ≤ 0.1
16 | Cn1nccc1Nc1cc(-c2cc3n(c2)C(C(F)F)Cn2c-3nnc2C(F)(F)C(F)F)c(Cl)cn1 (stereo not shown) [Compound 260] | 0.005 to 0.01 | > 0.1
17 | Cc1cnc(Nc2ccnn2C)cc1-c1cc2n(c1)CC1(CCC1)Cn1c-2nnc1C1(C(F)(F)F)CCC1 [Compound 129] | ≤ 0.005 | ≤ 0.1
18 | Cn1nccc1Nc1cc(-c2cc3n(c2)CCn2c-3nnc2C2(C(F)(F)F)CCC2)c(Cl)cn1 [Compound 20] | ≤ 0.005 | ≤ 0.1
19 | Cn1nccc1Nc1cc(-c2cc3n(c2)CC(F)(F)Cn2c-3nnc2C2(C(F)F)COC2)c(Cl)cn1 [Compound 32] | ≤ 0.005 | ≤ 0.1
20 | Cc1cnc(Nc2ccnn2C)nc1-c1cc2c3nnc(C4(C(F)(F)F)CCC4)n3ccn2c1 [Compound 231] | ≤ 0.005 | ≤ 0.1
21 | Cn1nccc1Nc1nccc(-c2cn3c(c2Cl)-c2nnc(COc4ccccc4F)n2CCC3)n1 [Compound 257] | 0.005 to 0.01 | ≤ 0.1

Next, values leading:

Row | IC50 [1] [µM] | IC50 [2] [µM] | Compound
22 | ≤ 0.005 | ≤ 0.1 | Cn1nccc1Nc1cc(-c2cc3n(c2)CCCn2c(Cc4ccccc4C#N)nnc2-3)c(Cl)cn1 [Compound 27]
23 | > 0.01 | ≤ 0.1 | C[C@H]1Cn2cc(-c3nc(Nc4ccnn4C)ncc3F)cc2-c2nnc(C(F)(F)c3ccccc3Cl)n21 [Compound 143]
24 | 0.005 to 0.01 | ≤ 0.1 | COC[C@H]1Cn2cc(-c3nc(Nc4ccnn4C)ncc3C)cc2-c2nnc(C(F)(F)c3ccccc3Cl)n21 [Compound 202]
25 | ≤ 0.005 | ≤ 0.1 | Cc1cnc(Nc2ccnn2C)nc1-c1cc2n(c1)C[C@H](C)n1c-2nnc1C(F)(F)c1ccccc1F [Compound 88]
26 | > 0.01 | > 0.1 | Cc1cnc(Nc2ccnn2C)cc1-c1cc2n(c1)C[C@H](CF)n1c-2nnc1C(F)(F)Oc1ccccc1F [Compound 170]
27 | > 0.01 | ≤ 0.1 | CCCn1nccc1Nc1ncc(C)c(-c2cc3n(c2)C[C@H](C)n2c-3nnc2C(F)(F)c2ccccc2F)n1 [Compound 291]
28 | > 0.01 | ≤ 0.1 | FC[C@H]1Cn2cc(-c3cc(NN4CCOCC4)ncc3Cl)cc2-c2nnc(C(F)(F)c3ccccc3F)n21 [Compound 274]
29 | > 0.01 | ≤ 0.1 | Cc1cnc(Nc2ccnn2CC(F)F)nc1-c1cc2n(c1)C[C@H](C)n1c-2nnc1C(F)(F)c1ccccc1F [Compound 298]
30 | > 0.01 | ≤ 0.1 | Cc1cnc(Nc2ccnn2C)cc1-c1cc2n(c1)C[C@H](C(F)F)n1c-2nnc1C(F)(F)c1ccccc1F [Compound 179]
31 | > 0.01 | ≤ 0.1 | Cc1cnc(Nc2ccnn2C)nc1-c1cc2n(c1)C[C@H](C(F)F)n1c-2nnc1C(F)(F)c1ccccc1Cl [Compound 205]
32 | 0.005 to 0.01 | ≤ 0.1 | C[C@H]1Cn2cc(-c3ccnc(Nc4ccnn4C)c3)cc2-c2nnc(C(F)(F)c3ccccc3Cl)n21 [Compound 91]
33 | > 0.01 | > 0.1 | Cn1nccc1Nc1cc(-c2cc3n(c2)C[C@H](Cc2ccccc2)n2c-3nnc2C2(C(F)(F)F)CCC2)c(Cl)cn1 [Compound 210]
34 | ≤ 0.005 | ≤ 0.1 | Cn1nccc1Nc1ncnc(-c2cc3n(c2)C[C@H](CF)n2c-3nnc2C(F)(F)c2ccccc2Cl)n1 [Compound 144]
35 | 0.005 to 0.01 | ≤ 0.1 | Cc1cnc(Nc2ccnn2C)cc1-c1cc2n(c1)C[C@H](CF)n1c-2nnc1C(F)(F)c1ccccc1 [Compound 86]
36 | ≤ 0.005 | ≤ 0.1 | Cn1nccc1Nc1cc(-c2cc3n(c2)C[C@H](CF)n2c-3nnc2C(F)(F)n2cc(F)cn2)c(Cl)cn1 [Compound 163]
37 | > 0.01 | ≤ 0.1 | CCn1nccc1Nc1ncc(C)c(-c2cc3n(c2)C[C@H](C)n2c-3nnc2C(F)(F)c2ccccc2F)n1 [Compound 289]
38 | ≤ 0.005 | > 0.1 | Cn1nccc1Nc1nccc(-c2cc3n(c2)CCCn2c(CCc4ccccc4F)nnc2-3)n1 [Compound 1, 4-(3-(2-fluorophenethyl)-6,7-dihydro-5H-pyrrolo[1,2-a][1,2,4]triazolo[3,4-c][1,4]diazepin-10-yl)-N-(1-methyl-1H-pyrazol-5-yl)pyrimidin-2-amine]
39 | ≤ 0.005 | ≤ 0.1 | COC[C@H]1Cn2cc(-c3nc(Nc4ccnn4C)ncc3C)nc2-c2nnc(C(F)(F)c3ccccc3F)n21 [Compound 223]
40 | 0.005 to 0.01 | ≤ 0.1 | Cc1cnc(Nc2ccnn2C)cc1-c1cc2n(c1)CCn1c-2nnc1C(F)(F)c1ccccc1Cl [Compound 90]
41 | ≤ 0.005 | ≤ 0.1 | Cn1nccc1Nc1cc(-c2cc3n(c2)C[C@H](CF)n2c-3nnc2C(F)(F)c2ncccc2F)c(Cl)cn1 [Compound 194]
42 | 0.005 to 0.01 | ≤ 0.1 | Cc1cnc(Nc2ccnn2C2COC2)nc1-c1cc2n(c1)C[C@H](C)n1c-2nnc1C(F)(F)c1ccccc1F [Compound 295]
43 | ≤ 0.005 | > 0.1 | Cn1nccc1Nc1cc(-c2cc3n(c2)C[C@H](CF)n2c-3nnc2C(F)(F)c2ncco2)c(Cl)cn1 [Compound 110]
44 | 0.005 to 0.01 | ≤ 0.1 | Cn1nccc1Nc1cc(-c2cc3n(c2)C[C@H](Cc2ccccc2)n2c(CCC(F)(F)F)nnc2-3)c(Cl)cn1 [Compound 203]
45 | 0.005 to 0.01 | > 0.1 | Cc1cnc(Nc2ccnn2C)cc1-c1cc2n(c1)C[C@H](CF)n1c-2nnc1C(F)(F)c1cc(F)cc(F)c1 [Compound 182]
46 | 0.005 to 0.01 | > 0.1 | Cc1cnc(Nc2ccnn2C)cc1-c1cc2n(c1)C[C@H](CF)n1c-2nnc1C(F)(F)c1noc2ccccc12 [Compound 197]
47 | 0.005 to 0.01 | ≤ 0.1 | C[C@@H](c1ccccc1)c1nnc2n1CCCn1cc(-c3cc(Nc4ccnn4C)ncc3Cl)cc1-2 [Compound 15]
48 | ≤ 0.005 | ≤ 0.1 | Cc1cnc(Nc2ccnn2C)nc1-c1cc2n(c1)CCn1c(COc3ccccc3F)nnc1-2 [Compound 7]
49 | ≤ 0.005 | > 0.1 | Cc1cnc(Nc2ccnn2C)nc1-c1cc2n(c1)CCn1c-2nnc1C1(C(F)(F)F)CCC1 [Compound 5]
50 | 0.005 to 0.01 | ≤ 0.1 | COCC1Cn2cc(-c3cc(Nc4ccnn4C)ncc3Cl)cc2-c2nnc(C3(C(F)(F)F)CCC3)n2C1 (stereo not shown) [Compound 300, 5-chloro-4-(6-(methoxymethyl)-3-(1-(trifluoromethyl)cyclobutyl)-6,7-dihydro-5H-pyrrolo[1,2-a][1,2,4]triazolo[3,4-c][1,4]diazepin-10-yl)-N-(1-methyl-1H-pyrazol-5-yl)pyridin-2-amine]
